In article PMC12594208, “SLC25A45 is required for mitochondrial uptake of methylated amino acids and de novo carnitine biosynthesis” (Molecular Cell, 2025):

Experiments:
purified human SLC25A45 = biological target: T1, purified human SLC25A45 (Homo sapiens, UniProt Q8N413); test: nanoDSF thermostability shift; format: binding; details: 10 mM compound, 20 mM HEPES pH 7.0, 50 mM NaCl, cardiolipin/LMNG, 25-95 °C at 4 °C per min
T1 construct: codon-optimised; N-terminal extension GKPRTSPK (residues 14-21 of human oxoglutarate carrier), eight-His tag and Factor Xa site, Factor Xa cleaved; from S. cerevisiae BJ2168 mitochondria; 33,118 Da; in lauryl maltose neopentyl glycol / tetraoleoyl cardiolipin
T1 sequence (Q8N413 1-288): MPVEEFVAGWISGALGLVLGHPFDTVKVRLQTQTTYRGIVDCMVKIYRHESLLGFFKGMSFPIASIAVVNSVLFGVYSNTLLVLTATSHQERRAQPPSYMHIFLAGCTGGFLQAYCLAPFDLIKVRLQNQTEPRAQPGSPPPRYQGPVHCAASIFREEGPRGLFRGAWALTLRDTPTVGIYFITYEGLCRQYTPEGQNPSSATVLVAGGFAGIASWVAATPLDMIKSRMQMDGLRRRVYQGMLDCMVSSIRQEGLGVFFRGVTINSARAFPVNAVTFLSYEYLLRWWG

SLC25A45-8xHis [1] = biological target: T2, SLC25A45-8xHis (Homo sapiens, UniProt Q8N413); test: competition of [2H9]-TML uptake by isolated mitochondria, LC-MS; format: biochemical; details: 10 mM unlabelled TML against 10 μM [2H9]-TML, 10 min, pH 7.25, room temperature
T2 construct: SLC25A45-Xa-8xHis, tag kept; in mitochondria isolated from FreeStyle 293-F cells
T2 sequence (Q8N413 1-288): T1 sequence (Q8N413 1-288)

SLC25A45-8xHis [2] = biological target: T2, SLC25A45-8xHis; test: uptake by isolated mitochondria, LC-MS; format: biochemical; details: 10 μM; pH 7.25, room temperature; labelled compound

dimethylarginine
ΔTm (purified human SLC25A45; isomer not told): 7.5 °C

C[N+](C)(C)CCCC[C@H](N)C(=O)O [trimethyllysine]
ΔTm (purified human SLC25A45): 3.4 °C | competition of [2H9]-TML uptake by isolated mitochondria, LC-MS (SLC25A45-8xHis [1]): mitochondrial import of [^2H9]-TML was abolished by co-incubation with excess unlabeled trimethyllysine

CN=C(NC)NCCC[C@H](N)C(=O)O [[^2H6]-SDMA]
uptake by isolated mitochondria, LC-MS (SLC25A45-8xHis [2]): SLC25A45 was also required for the mitochondrial uptake of the deuterium-labeled dimethylarginine isomers

CN(C)C(=N)NCCC[C@H](N)C(=O)O [[^2H6]-ADMA]
uptake by isolated mitochondria, LC-MS (SLC25A45-8xHis [2]): SLC25A45 was also required for the mitochondrial uptake of the deuterium-labeled dimethylarginine isomers
